Data reported in patent US11622991B2, “Protocol for treatment of lupus nephritis” (Aurinia Pharmaceuticals Inc., priority 2017, dated 2023).

System: lupus nephritis
Test: Predictability of week 48 partial remission from early reduction in UPCR (Tables 4-8)
Format: in vivo, human
Protocol: In the study reported in Example 1, the predictability of outcomes based on markers at early time points were determined.
This is important because it is undesirable to subject a patient to unnecessary treatment, even if the treatment is relatively safe.
PR is defined as at least 50% reduction in proteinuria (i.e. UPCR).
Sensitivity is defined as the probability that a subject showing PR at 48 weeks would have shown a favorable result with regard to the marker at the designated early time point. In the tables below, this is the ratio of the number of subjects with favorable marker results (early drop or normalization) to the total subjects with 48 week PR.
Specificity is defined as the probability that a subject not showing PR at 48 weeks would have shown an unfavorable result with regard to the marker at the designated early time point. In the tables below, this is the ratio of the number of subjects with unfavorable marker results (no early drop or no normalization) to the total subjects with no 48 week PR.
Positive predictive value is defined as the probability that a subject showing a favorable result with respect to the marker at an earlier time point would show PR at 48 weeks. In the tables below, this is the ratio of the number of subjects with favorable marker results who have 48 week PR to those with favorable marker results (early reduction or yes column).
Negative predictive value is defined as the probability that a subject showing an unfavorable result with respect to the marker at an earlier time point would not show PR at 48 weeks. In the tables below, this is the ratio of the number of subjects with unfavorable marker results who have no PR at 48 weeks to the total subjects with unfavorable marker results (no early reduction or no column).

[1] = 15% reduction in UPCR, Week 2, 23.7 mg BID
[2] = 15% reduction in UPCR, Week 2, 39.5 mg BID
[3] = 15% reduction in UPCR, Week 4, 23.7 mg BID
[4] = 15% reduction in UPCR, Week 6, 39.5 mg BID
[5] = 15% reduction in UPCR, Week 8, 39.5 mg BID
[6] = 15% reduction in UPCR, Week 12, 23.7 mg BID
[7] = 15% reduction in UPCR, Week 12, 39.5 mg BID
[8] = 15% reduction in UPCR, Week 16, 23.7 mg BID
[9] = 15% reduction in UPCR, Week 20, 23.7 mg BID
[10] = 15% reduction in UPCR, Week 20, 39.5 mg BID
[11] = 15% reduction in UPCR, Week 24, 23.7 mg BID
[12] = 15% reduction in UPCR, Week 26, 23.7 mg BID
[13] = 15% reduction in UPCR, Week 26, 39.5 mg BID
[14] = 15% reduction in UPCR, Week 36, 23.7 mg BID
[15] = 15% reduction in UPCR, Week 36, 39.5 mg BID
[16] = 15% reduction in UPCR, Week 48, 23.7 mg BID
[17] = 20% reduction in UPCR, Week 2, 23.7 mg BID
[18] = 20% reduction in UPCR, Week 2, 39.5 mg BID
[19] = 20% reduction in UPCR, Week 4, 23.7 mg BID
[20] = 20% reduction in UPCR, Week 6, 23.7 mg BID
[21] = 20% reduction in UPCR, Week 8, 23.7 mg BID
[22] = 20% reduction in UPCR, Week 8, 39.5 mg BID
[23] = 20% reduction in UPCR, Week 12, 23.7 mg BID
[24] = 20% reduction in UPCR, Week 12, 39.5 mg BID
[25] = 20% reduction in UPCR, Week 16, 23.7 mg BID
[26] = 20% reduction in UPCR, Week 20, 23.7 mg BID
[27] = 20% reduction in UPCR, Week 20, 39.5 mg BID
[28] = 20% reduction in UPCR, Week 24, 23.7 mg BID
[29] = 20% reduction in UPCR, Week 26, 23.7 mg BID
[30] = 20% reduction in UPCR, Week 26, 39.5 mg BID
[31] = 20% reduction in UPCR, Week 36, 23.7 mg BID
[32] = 20% reduction in UPCR, Week 36, 39.5 mg BID
[33] = 20% reduction in UPCR, Week 48, 23.7 mg BID
[34] = 25% reduction in UPCR, Week 2, 23.7 mg BID
[35] = 25% reduction in UPCR, Week 2, 39.5 mg BID
[36] = 25% reduction in UPCR, Week 4, 23.7 mg BID
[37] = 25% reduction in UPCR, Week 6, 23.7 mg BID
[38] = 25% reduction in UPCR, Week 8, 23.7 mg BID
[39] = 25% reduction in UPCR, Week 8, 39.5 mg BID
[40] = 25% reduction in UPCR, Week 12, 23.7 mg BID
[41] = 25% reduction in UPCR, Week 12, 39.5 mg BID
[42] = 25% reduction in UPCR, Week 16, 23.7 mg BID
[43] = 25% reduction in UPCR, Week 20, 23.7 mg BID
[44] = 25% reduction in UPCR, Week 20, 39.5 mg BID
[45] = 25% reduction in UPCR, Week 24, 23.7 mg BID
[46] = 25% reduction in UPCR, Week 24, 39.5 mg BID

C=C/C=C/C[C@@H](C)[C@@H](O)[C@H]1C(=O)N[C@@H](CC)C(=O)N(C)CC(=O)N(C)[C@@H](CC(C)C)C(=O)N[C@@H](C(C)C)C(=O)N(C)[C@@H](CC(C)C)C(=O)N[C@@H](C)C(=O)N[C@H](C)C(=O)N(C)[C@@H](CC(C)C)C(=O)N(C)[C@@H](CC(C)C)C(=O)N(C)[C@@H](C(C)C)C(=O)N1C [voclosporin]
Early Reduction No [1]: 30 | No Week 48 Partial Remission Early Drop [1]: 10 | Week 48 Partial Remission No Early Drop [1]: 16 | Early Reduction No [2]: 30 | No Week 48 Partial Remission No Early Drop [2]: 9 | No Week 48 Partial Remission No Early Drop [3]: 11 | Week 48 Partial Remission No Early Drop [3]: 9 | No Week 48 Partial Remission No Early Drop [4]: 4 | Week 48 Partial Remission No Early Drop [4]: 10 | No Week 48 Partial Remission No Early Drop (15% reduction in UPCR, Week 8, 23.7 mg BID): 7 | Early Reduction No [5]: 9 | No Week 48 Partial Remission No Early Drop [5]: 4 | No Week 48 Partial Remission No Early Drop [6]: 4 | Week 48 Partial Remission No Early Drop [6]: 2 | Early Reduction No [7]: 9 | No Week 48 Partial Remission No Early Drop [7]: 4 | Early Reduction No [8]: 8 | Week 48 Partial Remission No Early Drop [8]: 3 | Early Reduction No (15% reduction in UPCR, Week 16, 39.5 mg BID): 11 | Early Reduction No [9]: 3 | No Week 48 Partial Remission No Early Drop [9]: 3 | Early Reduction No [10]: 9 | Week 48 Partial Remission No Early Drop [10]: 4 | Early Reduction No [11]: 2 | No Week 48 Partial Remission No Early Drop [11]: 2 | Early Reduction No (15% reduction in UPCR, Week 24, 39.5 mg BID): 10 | Early Reduction No [12]: 3 | No Week 48 Partial Remission Early Drop [12]: 9 | No Week 48 Partial Remission No Early Drop [12]: 3 | Early Reduction No [13]: 4 | No Week 48 Partial Remission No Early Drop [13]: 4 | Early Reduction No [14]: 4 | No Week 48 Partial Remission Early Drop [14]: 10 | No Week 48 Partial Remission No Early Drop [14]: 3 | Week 48 Partial Remission No Early Drop [14]: 1 | Early Reduction No [15]: 7 | Week 48 Partial Remission No Early Drop [15]: 1 | Early Reduction No [16]: 2 | No Week 48 Partial Remission Early Drop [16]: 9 | No Week 48 Partial Remission No Early Drop [16]: 2 | No Week 48 Partial Remission Early Drop (15% reduction in UPCR, Week 48, 39.5 mg BID): 10 | Early Reduction No [17]: 33 | No Week 48 Partial Remission Early Drop [17]: 8 | No Week 48 Partial Remission No Early Drop [17]: 16 | Early Reduction No [18]: 34 | No Week 48 Partial Remission No Early Drop [18]: 10 | No Week 48 Partial Remission No Early Drop [19]: 11 | Week 48 Partial Remission No Early Drop [19]: 10 | No Week 48 Partial Remission Early Drop [20]: 11 | No Week 48 Partial Remission No Early Drop [20]: 7 | Week 48 Partial Remission No Early Drop (20% reduction in UPCR, Week 6, 39.5 mg BID): 10 | No Week 48 Partial Remission Early Drop [21]: 11 | No Week 48 Partial Remission No Early Drop [21]: 8 | Early Reduction No [22]: 10 | No Week 48 Partial Remission No Early Drop [22]: 4 | Early Reduction No [23]: 7 | Week 48 Partial Remission No Early Drop [23]: 2 | Early Reduction No [24]: 9 | No Week 48 Partial Remission No Early Drop [24]: 4 | Early Reduction No [25]: 9 | Week 48 Partial Remission No Early Drop [25]: 3 | Early Reduction No (20% reduction in UPCR, Week 16, 39.5 mg BID): 11 | Early Reduction No [26]: 4 | No Week 48 Partial Remission No Early Drop [26]: 4 | Early Reduction No [27]: 9 | Week 48 Partial Remission No Early Drop [27]: 4 | Early Reduction No [28]: 4 | No Week 48 Partial Remission Early Drop [28]: 11 | No Week 48 Partial Remission No Early Drop [28]: 3 | Week 48 Partial Remission No Early Drop [28]: 1 | Early Reduction No (20% reduction in UPCR, Week 24, 39.5 mg BID): 11 | Early Reduction No [29]: 3 | No Week 48 Partial Remission Early Drop [29]: 9 | No Week 48 Partial Remission No Early Drop [29]: 3 | Early Reduction No [30]: 4 | No Week 48 Partial Remission No Early Drop [30]: 4 | Early Reduction No [31]: 4 | No Week 48 Partial Remission Early Drop [31]: 10 | No Week 48 Partial Remission No Early Drop [31]: 3 | Week 48 Partial Remission No Early Drop [31]: 1 | Early Reduction No [32]: 8 | Week 48 Partial Remission No Early Drop [32]: 2 | Early Reduction No [33]: 2 | No Week 48 Partial Remission Early Drop [33]: 9 | No Week 48 Partial Remission No Early Drop [33]: 2 | No Week 48 Partial Remission Early Drop (20% reduction in UPCR, Week 48, 39.5 mg BID): 10 | No Week 48 Partial Remission Early Drop [34]: 8 | No Week 48 Partial Remission No Early Drop [34]: 16 | No Week 48 Partial Remission No Early Drop [35]: 10 | Week 48 Partial Remission Early Drop [35]: 33 | No Week 48 Partial Remission No Early Drop [36]: 11 | Week 48 Partial Remission No Early Drop [36]: 11 | Week 48 Partial Remission No Early Drop (25% reduction in UPCR, Week 4, 39.5 mg BID): 16 | No Week 48 Partial Remission Early Drop [37]: 10 | No Week 48 Partial Remission No Early Drop [37]: 8 | Week 48 Partial Remission No Early Drop [37]: 8 | No Week 48 Partial Remission Early Drop [38]: 10 | No Week 48 Partial Remission No Early Drop [38]: 9 | Early Reduction No [39]: 10 | No Week 48 Partial Remission No Early Drop [39]: 4 | Early Reduction No [40]: 10 | Week 48 Partial Remission No Early Drop [40]: 4 | Early Reduction No [41]: 9 | No Week 48 Partial Remission No Early Drop [41]: 4 | Early Reduction No [42]: 10 | No Week 48 Partial Remission Early Drop [42]: 11 | No Week 48 Partial Remission No Early Drop [42]: 7 | Week 48 Partial Remission No Early Drop [42]: 3 | Week 48 Partial Remission No Early Drop (25% reduction in UPCR, Week 16, 39.5 mg BID): 7 | No Week 48 Partial Remission Early Drop [43]: 11 | Week 48 Partial Remission No Early Drop [43]: 1 | Early Reduction No [44]: 9 | Week 48 Partial Remission No Early Drop [44]: 4 | Early Reduction No [45]: 4 | No Week 48 Partial Remission Early Drop [45]: 11 | No Week 48 Partial Remission No Early Drop [45]: 3 | Week 48 Partial Remission No Early Drop [45]: 1 | No Week 48 Partial Remission No Early Drop [46]: 7 | Week 48 Partial Remission No Early Drop [46]: 7 | Early Reduction No (25% reduction in UPCR, Week 26, 23.7 mg BID): 4
